B1: peanut (PNA): lectin (protein, UniProt P02872 24-273, looked up)
Galactose-binding lectin: AETVSFNFNSFSEGNPAINFQGDVTVLSNGNIQLTNLNKVNSVGRVLYAMPVRIWSSATGNVASFLTSFSFEMKDIKDYDPADGIIFFIAPEDTQIPAGSIGGGTLGVSDTKGAGHFVGVEFDTYSNSEYNDPPTDHVGIDVNSVDSVKTVPWNSVSGAVVKVTVIYDSSTKTLSVAVTNDNGDITTIAQVVDLKAKLPERVKFGFSASGSLGGRQIHLIRSWSFTSTLITTTRRSIDNNEKKIMNMASA

Legend:
β-secretase [1] = target: T1, β-secretase (Homo sapiens, UniProt P56817); assay: β-secretase assay in the presence of common protease inhibitors (MBP-C125 cleavage, SW-192 ELISA); type: biochemical; details: for IC50: Max Conc not given
T1 construct: purified from a natural source, such as human brain tissue or human 293 cells; endogenous in cells

APP = assay: Proteolytic activity of β-secretase as a function of pH; type: biochemical, human
β-secretase [2] = target: T1, β-secretase; assay: Binding of substantially purified β-secretase activity to immobilized lectins; details: immobilized lectin; Table 2
Method: Glycosylation of β-secretase has been investigated using various immobilized lectins, and ability of substantially purified β-secretase activity to bind to them was determined. […] A "-" sign signifies less than 20% binding, "+" between […] binding, "++" between 50-75% binding, and "+++" >75% binding.

T1 sequence (P56817 46-501): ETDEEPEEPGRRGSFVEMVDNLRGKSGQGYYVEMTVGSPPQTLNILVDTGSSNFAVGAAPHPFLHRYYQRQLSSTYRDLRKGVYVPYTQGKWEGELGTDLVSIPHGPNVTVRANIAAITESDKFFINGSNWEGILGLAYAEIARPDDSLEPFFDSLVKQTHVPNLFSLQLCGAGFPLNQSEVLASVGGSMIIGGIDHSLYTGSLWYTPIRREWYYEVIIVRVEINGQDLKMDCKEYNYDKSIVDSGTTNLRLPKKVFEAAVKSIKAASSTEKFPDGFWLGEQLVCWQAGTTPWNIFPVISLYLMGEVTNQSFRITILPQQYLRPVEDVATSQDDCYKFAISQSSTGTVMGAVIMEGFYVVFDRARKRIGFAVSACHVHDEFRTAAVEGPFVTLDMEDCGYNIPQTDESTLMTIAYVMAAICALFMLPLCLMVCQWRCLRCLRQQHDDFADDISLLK

| Molecule | IC50 (β-secretase [1]; pH 5.5) [mM] | inhibition of β-secretase activity (in words) (β-secretase [1]) | other results |
| --- | --- | --- | --- |
| CCCCC(NC(=O)C=[N+]=[N-])C(=O)OC (stereo not drawn) [diazoacetylnorleucylmethyl ester] | > 5 | – | – |
| c1cnc2c(c1)ccc1cccnc12 [o-phenanthroline] | 7 | inhibits poorly | – |
| c1cnc2c(c1)ccc1ncccc12 [m-phenanthroline] | 7 | also does so | – |
| β-secretase: enzyme which cleaves APP at the amino-terminus of β-amyloid peptide, purified from human 293 cells or human brain | – | – | pH of peak proteolytic activity (APP): 5 to 5.5; proteolytic activity (APP; pH 7.5 and above): very low activity |
| O=c1oc(Cl)c(Cl)c2ccccc12 [3,4-dichloroisocoumarin] | – | – | inhibition at 500 µM (β-secretase [1]; Max Conc 0.5 mM, pH 5.5): < 25% |
| B1 | – | – | β-Secretase Binding (β-secretase [2]): + (between 24-40% binding) |

Reference: patent US6329163A, “Assays for detecting β-secretase inhibition” (Elan Pharmaceuticals, Inc., priority 1998, dated 2001)
